Results on 15 compounds are retold here after PubChem BioAssay (NCI).

Some test systems named below: CAKI-1 renal; COLO 205 colon; HT29 colon; K-562 leukemia; NCI-H522 lung; OVCAR-8 ovarian; PC-3 prostate; SR leukemia; SW-620 colon; HL-60(TB) leukemia.
Test in all cases: NCI tumour cell line growth inhibition, 48 h

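A five-concentration, 48-hour dose response in 96-well plates underlies each endpoint, interpolated linearly between surrounding concentrations. The concentration for full growth arrest is given as TGI.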

`O=C1CCC(=O)N1n1c(Cc2ccccc2)n[nH]c1=O`: the TGI in the assay on CAKI-1 renal, in the assay on COLO 205 colon, in the assay with HT29 colon, in the assay on K-562 leukemia, with NCI-H522 lung and in the assay with OVCAR-8 ovarian was above 100 µM in each case. The TGI in the assay on PC-3 prostate, in the assay with SR leukemia and in the assay on SW-620 colon was above 100 µM in each case.

For the compound `O=C(Cc1cccs1)N[C@@H]1C(=O)N2C(C(=O)OC(c3ccccc3)c3ccccc3)=C(CO)CS[C@H]12`, the TGI in the assay with CAKI-1 renal, with COLO 205 colon, in the assay with HL-60(TB) leukemia, in the assay on K-562 leukemia, in the assay with NCI-H522 lung and in the assay with OVCAR-8 ovarian was above 100 µM each time. Moreover, the TGI in the assay on PC-3 prostate, in the assay on SR leukemia and in the assay on SW-620 colon was above 100 µM each time.

On to `CC1=C(C)[C@@]2(C)O[C@@]2(C)O[C@@]2(C)O[C@@]12C`, for which the TGI with CAKI-1 renal, in the assay with COLO 205 colon, in the assay on HT29 colon, with K-562 leukemia, with NCI-H522 lung and in the assay on OVCAR-8 ovarian was above 100 µM throughout. In addition, the TGI in the assay with PC-3 prostate and in the assay with SR leukemia was above 100 µM throughout.

As for `CC(C)/C(Cl)=N\OC(=O)Nc1ccc(S(N)(=O)=O)cc1`, the TGI in the assay on CAKI-1 renal stood at 31.1 µM; in the assay with COLO 205 colon it was 3.92 µM; in the assay on HT29 colon, 48.4 µM; with K-562 leukemia, 5.52 µM; in the assay with NCI-H522 lung, 2.55 µM; in the assay on OVCAR-8 ovarian it was 32 µM. The values for the TGI with PC-3 prostate, with SR leukemia and with SW-620 colon were 32.6 µM, 5.17 µM and 3.41 µM, respectively.

Regarding `CC(=O)Nc1ccc(-c2nnc(SCC(=O)Nc3ccc([N+](=O)[O-])cc3)o2)cc1`, the TGI with CAKI-1 renal is 27.5 µM; with COLO 205 colon, 27.3 µM; with HL-60(TB) leukemia, above 100 µM; with HT29 colon it was 27.3 µM; in the assay with K-562 leukemia it was above 100 µM; in the assay on NCI-H522 lung it was 20.7 µM. Further, the values for the TGI with OVCAR-8 ovarian, in the assay on SR leukemia and with SW-620 colon were 29.9 µM, above 100 µM and 29.7 µM, respectively.

`CC[C@@]1(O)C(=O)OCc2c1cc1n(c2=O)Cc2c-1nc1ccccc1c2/C=N\NC(=O)CN`: the TGI was above 100 µM in the assay on COLO 205 colon; above 100 µM in the assay on HL-60(TB) leukemia; above 49.7 µM in the assay with HT29 colon; above 100 µM with K-562 leukemia; 35.5 µM with NCI-H522 lung; above 95.5 µM with OVCAR-8 ovarian. Besides, the figures for the TGI with PC-3 prostate, with SR leukemia and with SW-620 colon were above 100 µM, 0.464 µM and above 100 µM, respectively.

As for `C[C@]12CC[C@H](O)CC1=CC[C@@H]1C2CC[C@]2(C)C(=O)N(N)C(=O)CC12` (stereo partly drawn), the TGI in the assay on CAKI-1 renal, in the assay with COLO 205 colon, in the assay with HL-60(TB) leukemia, in the assay on HT29 colon, with K-562 leukemia and in the assay with NCI-H522 lung was above 100 µM each time. Also, the TGI in the assay with OVCAR-8 ovarian, in the assay with SR leukemia and in the assay with SW-620 colon was above 100 µM each time.

In the case of `COc1cc(/C=C/C(=N\NS(=O)(=O)c2ccc(C)cc2)c2sc(NNC(C)=O)nc2C)ccc1O`, the TGI in the assay with CAKI-1 renal, in the assay with COLO 205 colon, with HL-60(TB) leukemia, in the assay with HT29 colon, in the assay on NCI-H522 lung and in the assay with OVCAR-8 ovarian was above 100 µM in each case. Moreover, the TGI with PC-3 prostate, with SR leukemia and in the assay with SW-620 colon was above 100 µM throughout.

Turning to `Clc1cc(OC2C3CC4CC(C3)CC2C4)nc(Cl)n1` (stereo not drawn), the TGI turned out to be 34.2 µM in the assay with COLO 205 colon; 12.9 µM in the assay on HL-60(TB) leukemia; 30.5 µM with HT29 colon; 24.1 µM with K-562 leukemia; 27.1 µM in the assay with NCI-H522 lung; 61.6 µM with OVCAR-8 ovarian. The TGI in the assay with PC-3 prostate is 37.9 µM; in the assay on SR leukemia, 11.7 µM; in the assay on SW-620 colon, 29 µM.

Consider `C(/c1ccco1)=c1/nc(-c2ccccc2)n2c1nc1ccccc12`, for which the TGI with CAKI-1 renal was 72.2 µM; in the assay on COLO 205 colon, above 100 µM; in the assay with HL-60(TB) leukemia it was above 100 µM; in the assay on HT29 colon, above 100 µM; with K-562 leukemia, 68.3 µM; in the assay on OVCAR-8 ovarian, above 100 µM. Also, the TGI in the assay with PC-3 prostate was 9.43 µM; with SR leukemia it was 43 µM; in the assay on SW-620 colon, above 100 µM.

On to `COC(=O)c1cc2c(n1S(=O)(=O)c1ccc(C)cc1)C(=O)C(=O)c1[nH]cc(C(=O)OCc3ccccc3)c1-2`, for which the TGI in the assay with CAKI-1 renal is 1.28 µM; in the assay with COLO 205 colon, 0.433 µM; in the assay on HT29 colon it was 1.15 µM; in the assay on K-562 leukemia it was above 100 µM; in the assay on NCI-H522 lung, 0.48 µM; in the assay with OVCAR-8 ovarian, 0.706 µM. Moreover, the TGI in the assay with PC-3 prostate was determined as 1.13 µM; in the assay with SR leukemia, 0.802 µM; in the assay with SW-620 colon, 0.174 µM.

Consider `CNS(=O)(=O)NNS(=O)(=O)c1ccc2ccccc2c1`, for which the TGI with CAKI-1 renal, with COLO 205 colon, in the assay with HL-60(TB) leukemia, with HT29 colon, in the assay on K-562 leukemia and in the assay with NCI-H522 lung was above 100 µM each time. Also, the TGI with OVCAR-8 ovarian, with SR leukemia and with SW-620 colon was above 100 µM throughout.

For `CCC12C=CCN3CCC4(C(=C(C(=O)OC)[C@@H]1O)Nc1ccccc14)C32` (stereo partly drawn), the TGI in the assay on CAKI-1 renal is 7.18 µM; in the assay on COLO 205 colon, 3.22 µM; in the assay with HL-60(TB) leukemia, 4.98 µM; in the assay with HT29 colon, 3.76 µM; in the assay with K-562 leukemia, above 26.9 µM; with NCI-H522 lung, 3.06 µM. In addition, the results for the TGI in the assay with OVCAR-8 ovarian, in the assay with SR leukemia and with SW-620 colon were 5.33 µM, 4.58 µM and 3.3 µM, respectively.

Take `O=C(O)c1cccc2c1/C(=N/Nc1ccccc1)CC2`: the TGI in the assay on CAKI-1 renal, in the assay on HT29 colon, with K-562 leukemia, with NCI-H522 lung, in the assay with OVCAR-8 ovarian and in the assay with PC-3 prostate was above 100 µM each time. The TGI with SR leukemia and in the assay with SW-620 colon was above 100 µM throughout.

On to `[N-]=[N+]=Nc1cc(=O)oc2ccccc12`, for which the TGI in the assay on CAKI-1 renal, in the assay on COLO 205 colon, with HL-60(TB) leukemia, with HT29 colon, in the assay with K-562 leukemia and in the assay on NCI-H522 lung was above 100 µM throughout. Further, the TGI in the assay with OVCAR-8 ovarian, with SR leukemia and in the assay with SW-620 colon was above 100 µM each time.
